Each structure is given as a SMILES string. ≈ marks a conversion by molar mass, not a printed value. Where “and” joins values, the source holds several entries; their conditions need not be identical. Equal entries are not always repeated.

The MIC is the lowest concentration that inhibits growth of the organism.

Experiment [1] relates to E. faecalis. The experiment is described as follows: MIC, microdilution broth, multiresistant clinical isolates (Table 1A). The following applies: Enterococcus faecalis; ten multiresistant clinical isolates; read-out: Median MIC E. faecalis. It counts as cell-based. The method, then:
(§1) Cell growth was tested using the Minimal Inhibitory Concentration (MIC) susceptibility tests by use of the microdilution broth method in accordance to the NCCLS Guidelines (NCCLS Guidelines, Methods for Dilution Antimicrobial Susceptibility Tests for Bacteria That Grow Aerobically; Approved Standard, Sixth Edition, Volume 23; Number 2). The minimum inhibitory concentration (MIC), is defined as the lowest concentration of drug which inhibits growth of the test organism, in the sense that no visible growth is detected (total inhibition of growth). In example 2, MIC of the compounds used on fungal microorgansims was determined from the IC90 measurements according to NCCLS Guidelines.
(§2) A log phase culture of bacteria was diluted with fresh pre-warmed Mueller-Hinton medium and adjusted to a defined OD at 600 nm in order to give a final concentration of 1×10^4-5 bacteria/ml medium. The bacterial culture was transferred to microtiter-plates and culture was added to each well. […] Trays were incubated at 37° C. by shaking in a robot analyzer, PowerWavex, software KC^4′ Kebo. Lab, Copenhagen, for 16 h and optical densities were measured at 600 nm during the incubation time in order to record growth curves. Wells containing bacterial culture without drug were used as controls to ensure correct inoculum size and bacterial growth during the incubation. Cultures were tested in order to detect contaminations. Each experiment was repeated in triplicate.
(§3) Ten strains in each test group.
For orientation: Dilution methods test growth across graded concentrations, often in twofold steps.

In experiment [2] the test system is E. faecium. The description is as above. Type of experiment: cell-based. The following applies: Enterococcus faecium; ten multiresistant clinical isolates; read-out: Median MIC E. faecium. The method, then:
as §1, §2, §3

For experiment [3], the system named is Gram negative sp. As to the kind of experiment: MIC on multiresistant and susceptible clinical isolates (Table 1b). Type of experiment: cell-based. The following applies: 8 multiresistant and 8 susceptible isolates. Here is the method:
as §1
(§4) A log phase culture of bacteria was diluted with fresh pre-warmed Mueller-Hinton medium and adjusted to a defined OD at 600 nm in order to give a final concentration of 1×10^4-5 bacteria/ml medium. The bacterial culture was transferred to microtiter-plates and culture was added to each well. Drug was added to the bacterial culture in the wells as two-fold dilution series of drug in order to give final concentrations ranging from 0.03 to 128 μg/ml. Trays were incubated at 37° C. by shaking in a robot analyzer, PowerWavex, software KC^4′ Kebo. Lab, Copenhagen, for 16 h and optical densities were measured at 600 nm during the incubation time in order to record growth curves. Wells containing bacterial culture without drug were used as controls to ensure correct inoculum size and bacterial growth during the incubation. Cultures were tested in order to detect contaminations. Each experiment was repeated in triplicate. MIC values represent the mean values of two separate triplicate experiments. Intra- and interassay variation was <5%.
(§5) Clinically relevant human bacterial isolates of Staphylococci, Streptococci, Micrococci and Gram negative species was cultured and assayed as described above for susceptibility towards the compounds listed in table 1b.

The subject of experiment [4] is Staphylococci, Micrococci. Including MRSA. The description is as above. It counts as cell-based. The following applies: Micrococci incl. MRSA, 8 multiresistant and 8 susceptible isolates. The method, then:
as §1, §4, §5

For experiment [5], the system named is Streptococci. The description is as above. The following applies: 8 multiresistant and 8 susceptible isolates. Type of experiment: cell-based. Here is the method: as §1, §4, §5
Experiment [6] relates to E. coli MDR clinical isolates. The experiment is described as follows: FIC index, synergy with antibiotics (Table 4a). Type of experiment: cell-based. The following applies: 8 MDR E. coli, mean, compound at ¼ of MIC. The method, then: The effect of the compounds was tested according to the methods described in WO2005/105145. In brief, cell growth was tested using the MIC susceptibility tests by use of the microdilution broth method in accordance to the NCCLS Guidelines (NCCLS Guidelines, Methods for Dilution Antimicrobial Susceptibility Tests for Bacteria That Grow Aerobically; Approved Standard, Sixth Edition, Volume 23; Number 2).
The Fractional Inhibitory Concentration (FIC) index were calculated for each compound as described in WO2005/105145. Synergy was defined for Fractional Inhibitory Concentration (FIC) indices less than 0.5
E. coli: 8 in vivo-selected multidrug resistant clinical isolates of E. coli. Resistant to tetracycline, beta-lactams, fluoroquinolones, chloramphenicol and aminoglycoside

In experiment [7] the test system is Enterococcus faecalis BG VSE-92. As to the kind of experiment: Mouse peritonitis/sepsis model, NMRI mice. Type of experiment: in vivo. The following applies: 3.1 mg/kg s.c. Here is the method: Mouse peritonitis/sepsis model.
A clinical isolate of Enterococcus faecalis BG VSE-92 from human urine was used. This strain is a multiresistant isolate.
Female NMRI mice (age, approximately 6 to 8 weeks; weight, 30±2 g) were used for the mouse […] peritonitis model (as described below).
Bacterial suspensions were prepared from fresh overnight cultures (made from frozen stock cultures) on 5% blood agar plates as described above. The inoculum for the mouse peritonitis model was prepared immediately before use and was adjusted at 540 nm of giving a density of approximately 10^7 CFU/ml. The size of the inoculum was determined by viability counting on 5% blood agar.
The mice were injected intraperitoneally with 0.5 ml of the enterococcal suspension, resulting in bacteremia within 1 h of inoculation. Antibiotic therapy was initiated 1 h after inoculation. N-dealkyl-Trans-clopenthixol was administered subcutaneously in the neck region in a volume of 0.7 ml per dose. Five mice were in each treatment group. Inoculated untreated control mice were included in all trials. (Method reference: Erlandsdottir et al; Antimicrob Agents Chemother. 2001 April; 45(4):1078-85)
The effects of the various treatment regimens were determined during 5 h of treatment by evaluation of bacterial counts in the peritoneal fluid. The bactericidal efficacies of the treatment regimens in the mouse models were calculated by subtracting the results for each treated mouse from the mean results for control mice at the end of therapy (5 h). A decrease of one thousand times (3 log 10 steps) represents maximum effect in this model and sustains strong bacterial killing effect of the compound tested.

The test system of experiment [8] is Candida albicans. As to the kind of experiment: Synergy with fluconazole, broth microdilution NCCLS M27-A (Table 10). Type of experiment: cell-based. The method, then:
The isolates were subcultured for 24 h on Sabouraud glucose agar before susceptibility testing. Broth microdilution tests were performed according to NCCLS document M27-A (Ref: National Commitee for Clinical Laboratory Standards. (1997). Reference Method for Broth Dilution Antifungal Susceptibility Testing of Yeasts: Approved Standard M27-A. NCCLS, Wayne, Pa.) Microtitre plates were read spectrophotometrically at 530 nm, after mixing the wells by pipetting to resuspend yeast sediments. […] The Fractional Inhibitory Concentration (FIC) was calculated for the anti-infective agent alone and in combination with compound 3 and 4 (see table 4) as described above. Synergy was defined as a FIC index of <0.5.

For `Clc1ccc2c(c1)/C(=C/CCC1CCNCC1)c1ccccc1S2` [Compound 3], the MIC in experiment [1] stood at 0.1 µg/mL (≈ 0.281 µM); in experiment [2] it was 0.1 µg/mL (≈ 0.281 µM); in experiment [8] (Candida albicans, compound alone, read-out: MIC Compound), 1 µg/mL. The results for the “MIC Mean” value in experiment [3], in experiment [4] and in experiment [5] were 3 µg/mL (≈ 8.43 µM), 0.25 µg/mL (≈ 0.702 µM) and 0.25 µg/mL (≈ 0.702 µM), respectively. Also, the FIC index turned out to be 0.44 in experiment [6] (with Ampicillin); 0.44 in experiment [6] (with Ciprofloxacin); 0.44 in experiment [6] (with Gentamycin); 0.44 in experiment [6] (with Tetracycline); 0.28 in experiment [8] (in combination with fluconazole). Moreover, the “Decrease of number of bacteria per ml of peritoneal fluid” value in experiment [7] (5 hours, vs control) was 3 log 10 steps. In experiment [7] (p<0.05), the “Bacteria survived after 5 hours” value came to 0.001%. In addition, the CFU/ml - peritoneum in experiment [7] (treatment 0 and 1 hour, sampling 5 hours, individual mice) was 2.05E+06 CFU/ml and 2.90E+06 CFU/ml and 4.25E+06 CFU/ml.

For the origin of these results see patent publication US8604059B2, “Thioxanthene derivatives for the treatment of infectious diseases” (BKG Pharma APS, priority 2009, dated 2013).
